# Data from PubChem BioAssay (NCI).
# Where “and” joins values, the source holds several entries; their conditions need not be identical. Equal values may be shown once.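 The compound was tested at five concentrations on cells cultured in 96-well plates, with a 48-hour exposure period. GI50 is the concentration that inhibits growth by half. The concentration for full growth arrest is given as TGI.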
# Columns and labels:
# Experiment in all cases: NCI tumour cell line growth inhibition, 48 h
# [1] = tested on: DLD-1 colon
# [2] = tested on: DMS 273 small cell lung
# [3] = tested on: KM20L2 colon
# [4] = tested on: LXFL 529 NSCLC
# [5] = tested on: M19-MEL melanoma
# [6] = tested on: SNB-78 CNS
# [7] = tested on: RXF-631 renal
# [8] = tested on: HOP-18 NSCLC
# [9] = tested on: MDA-N
# [10] = tested on: P388 leukemia
# [11] = tested on: P388/ADR leukemia
# [12] = tested on: SN12K1 renal
SMILES,TGI [1] [µM],TGI [2],TGI [3],TGI [4] [µM],TGI [5],TGI [6] [µM],TGI [7] [µM],TGI [8] [µM],further results
O=[P+](O)c1ccccn1,> 100,> 100 µM,> 100 µM,> 100,> 100 µM,> 100,,,
Cc1cccc(C)c1NC(=O)CCc1nnc2s/c(=C\c3ccc(N(C)C)cc3)c(=O)n12,> 100,> 100 µM,> 100 µM,> 100,,> 100,> 100,,
Cc1cc(N(CCC#N)CCC#N)ccc1N=Nc1cc(Cl)ccc1Cl,26.1,29.6 µM,,3.35,26.6 µM,22,,22.1,
C/C(=N\NC(N)=S)c1ccc(C)c(C)c1,> 100,> 100 µM,> 100 µM,> 100,> 100 µM,> 100,> 100,> 100,
O=c1c2cc(Br)cc(Br)c2nc(CCCl)n1-c1ccc(O)c([N+](=O)[O-])c1,36.6,36.9 µM,,30.3,29.8 µM,62.3,,30.4,
CCOC(=O)C1C=C2O[C@@H]3OC4(CCCCC4)O[C@@H]3C2C2C(=O)CCC(=O)[C@@]12C(=O)OC (some centres undefined),> 100,> 100 µM,> 100 µM,> 100,> 100 µM,> 100,> 100,> 100,
C=CC(COC(=O)C(C)(C)OC(C)=O)c1ccc(OC(=O)C(C)C)c(OC)c1 (centres undefined),,,,,,,,,TGI [9]: 14 µM
O=C(Cc1nc2sc3c(c2c(=O)[nH]1)CCCC3)Nc1ccccc1,,> 100 µM,> 100 µM,> 100,> 100 µM,,,> 100,
C[C@H]1C/C=C/[C@H]2[C@@H]3O[C@]3(C)[C@@H](C)[C@H]3[C@H](Cc4ccccc4)NC(=O)[C@]32OC(=O)O/C=C/[C@@](C)(O)C1=O,,> 96.8 µM and 64.2 µM,> 92.3 µM and 125 µM and > 250 µM,,24.2 µM and 38.9 µM and 56.8 µM,,,0.162,GI50 [2]: 0.0125 µM; GI50 [8]: < 0.0116 µM; GI50 [3]: 0.0125 µM; GI50 [5]: 0.0356 µM and 0.025 µM; TGI [9]: 54 µM; TGI [10]: 15.3 µM and 125 µM and 45.6 µM; GI50 [11]: 0.434 µM and 0.194 µM and 0.69 µM; TGI [11]: 10.5 µM and 14 µM and 40.9 µM; GI50 [12]: 0.0125 µM; GI50 [6]: 0.024 µM and 0.025 µM
CCc1cccc(C(C)C)c1NC(=O)CCl,> 100,> 100 µM,> 100 µM,> 100,> 100 µM,> 100,37.4,,
CCCCC(C)/C=C/C(=O)C1=C(O)/C(=C/C(=O)O)OC1=O (centres undefined),,> 100 µM,> 100 µM,> 100,,> 100,> 100,> 100,
C/C(=N\NC(=O)C[N+](C)(C)C)c1sc(-c2cccnc2)nc1C,> 100,> 100 µM,> 100 µM,> 100,> 100 µM,> 100,> 100,,
Cc1coc2c1C(=O)C(=O)c1ccccc1-2,4.26,3.33 µM,11.2 µM,1.41,,3.13,,,
C[N+](C)(C)CC1CCC(C[N+](C)(C)C)C1=O (centres undefined),> 100,6.37 µM,9.78 µM,1.57,3.83 µM,5.26,36.4,1.85,TGI [9]: 19.3 µM
COC(=O)CCC(=O)N1C/C(=C\c2ccccc2)C(=O)/C(=C/c2ccccc2)C1,10.9,2.73 µM,3.82 µM,4.13,11.7 µM,7.83,,6.85,
N#Cc1ccc(/C=C(/C(=O)c2ccccc2)c2ccccc2)cc1,13,26.2 µM,31.2 µM,20.4,31.8 µM,14.3,29.8,> 55.1,
S=c1o[nH]c(-c2ccccc2)c1C=Nc1ccccc1,> 100,> 100 µM,,> 100,,> 100,,,
CC(C)c1ccc(C2NC(=S)NC3=C2c2ccccc2C3=O)cc1 (centres undefined),> 100,> 100 µM,64.5 µM,> 100,> 100 µM,,> 100,,TGI [9]: 20.6 µM
Cn1c(=O)nc2n(-c3ccc(Cl)cc3)c(-c3ccccc3)c(-c3ccccc3)nc-2c1=O,> 100,59.3 µM,> 100 µM,> 100,,> 100,> 100,> 100,
O=c1c2ccccc2[nH]c2c(O)ccc(O)c12,,30.5 µM,> 100 µM,28.5,63.6 µM,39.6,51.5,,

SMILES,TGI [1] [µM],TGI [2],TGI [3],TGI [4] [µM],TGI [5],TGI [6] [µM],TGI [7] [µM],TGI [8] [µM],further results
O=C1/C(=C/c2ccc3c(c2)OCCO3)CCC/C1=C\c1ccc2c(c1)OCCO2,48.4,43.9 µM,37.5 µM,> 100,81.9 µM,> 100,,80.2,
CN(C)CCC(/C=C/c1ccccc1)=N\Nc1ccc(Cl)c(Cl)c1,11,6.42 µM,4.54 µM,4.13,15 µM,15.4,6.73,8.28,
C=C1C(=O)OC2C1C(OC(=O)/C(C)=C/C)CC(O)(CCl)C1C(O)C=C(C)C21O (centres undefined),,,,,,,,,TGI [9]: 37.3 µM
Cc1ccccc1NC(=O)/C=N/O,> 100,> 100 µM,32 µM,> 100,> 100 µM,,,> 100,
COC(=O)c1cccc2c3ccccc3c3ccccc3c12,> 100,> 100 µM,> 100 µM,85.2,> 100 µM,,,> 100,
Cc1cccc(C)c1NC(=O)CCC/C(CC(=O)c1ccc(F)cc1)=N\NC(=O)C(=O)NN,> 100,> 100 µM,> 100 µM,> 100,> 100 µM,> 100,> 100,> 100,
OB(O)c1ccccc1C#Cc1ccccc1B(O)O,,,,,,,,,TGI [9]: 58.4 µM
CC1=C(C(=O)NCc2ccccc2)C(c2ccc(Cl)c(Cl)c2)C(C(=O)NCc2ccccc2)=C(C)N1,> 100,> 100 µM,> 100 µM,> 100,> 100 µM,> 100,,,
Cc1ccc(S(=O)(=O)NC(=O)NCCc2ccccc2)cc1,> 100,,> 100 µM,> 100,> 100 µM,> 100,,> 100,
CCCCCCCCOCC(O)CO (centres undefined),> 100,> 100 µM,> 100 µM,> 100,> 100 µM,> 100,> 100,> 100,
CC[C@@]1(OC(=O)C(N)CCCCN)C(=O)OCc2c1cc1n(c2=O)Cc2cc3ccccc3nc2-1 (some centres undefined),> 27.1,0.366 µM,12.5 µM,4.34,0.509 µM,> 100,,> 23,TGI [9]: 4.44 µM
O=C(O)C1CC=CCC1C(=O)Nc1cccc(O)c1 (centres undefined),,,,,,,,,TGI [9]: > 100 µM
Nc1ccc(-c2cc(C(=O)Nc3nccs3)[nH]c(=S)n2)cc1,> 100,,> 100 µM,> 100,> 100 µM,> 100,,> 100,
CCOC(=O)C(=O)Nc1cc(Cl)c(Cl)cc1Cl,,> 100 µM,> 100 µM,> 100,> 100 µM,> 100,> 100,,
O=C(O)[C@@H]1OCCOCCO[C@@H](C(=O)O)[C@H](C(=O)O)OCCOCCO[C@H]1C(=O)O,> 61.8,> 100 µM,> 100 µM,> 100,> 100 µM,> 100,,> 100,
C1OC1CN1CCN(CC2CO2)CC1 (centres undefined),> 100,> 100 µM,> 100 µM,> 100,> 100 µM,> 100,,> 100,
c1ccc(CN2CCc3[nH]c4ccccc4c3C2)cc1,> 100,> 100 µM,26.3 µM,48.6,> 82.1 µM,> 100,38.5,> 100,TGI [9]: 44 µM; TGI [12]: 29.1 µM
O=C1CC(c2c(-c3ccccc3)[nH]c3ccccc23)C(=O)N1c1ccccc1 (centres undefined),> 100,> 100 µM,> 100 µM,> 100,> 100 µM,> 100,> 100,,
CCC/C=C\C=C\C1(NS(=O)(=O)c2ccc(C)cc2)CCC(C(C)(C)C)CC1 (centres undefined),45.3,27.9 µM,35.6 µM,> 100,44.9 µM,72.3,,> 100,
